Patent US20240317732A1, “A NEW MOLECULAR SCAFFOLD FOR TARGETING HRPN13” (THE UNITED STATES OF AMERICA AS REPRESENTED BY THE …, priority 2021, published 2024)

How the values were obtained:
hRpn13 Pru [1] = biological target: T1, hRpn13 Pru (Homo sapiens (Human), UniProt Q16186); experiment: Isothermal titration calorimetry (ITC) of hRpn13 Pru binding; settings: 25° C.
Method: ITC experiments were performed at 25° C. on a MicroCal iTC200 system (Malvern, PA, USA). hRpn13 Pru, XL5, XL5 derivative, or RA190 were prepared in buffer C. One aliquot of 0.5 μL followed by 17 or 18 aliquots of 2.1 μL of 200 μM hRpn13 Pru was injected at 750 r.p.m. into a calorimeter cell (volume […]) that contained 20 μM XL5, XL5 derivative, or RA190. Blank experiments were performed by replacing XL5, XL5 derivative, or RA190 with buffer in the cell and the resulting data subtracted from the experimental data during analyses. The integrated interaction heat values were normalized as a function of protein concentration and the data were fit with MicroCal Origin 7.0-based software implementing the “One Set of Sites” model to yield binding affinity Ka (1/Kd), stoichiometry, and other thermodynamic parameters. Dissociation constants (Kd) as determined by ITC as well as relative binding affinities of selected compounds are presented n Table 1, while additional information on named compounds including structures, synthesis, and characterization is presented in Examples 3-9: […]

hRpn13 Pru [2] = biological target: T1, hRpn13 Pru; experiment: Differential scanning fluorimetry, tryptophan quenching at 350 nm; type: binding; settings: 1 μM hRpn13 Pru, 20° C.
Source text: We conducted in silico docking screens of commercial libraries containing in total 63 million compounds by using the hRpn13 Pru:hRpn2 structure and hRpn2-binding site of hRpn13 as a binding pocket. Twenty-two potential lead compounds were selected for validation by biophysical assays. hRpn13 W108 is partially exposed when free but buried by hRpn2, enabling tryptophan quenching by differential scanning fluorimetry (DSF at λ350) for assaying binding and this approach was used to screen for compound binding to this site. 20 μM compound (separately for twenty compounds) was incubated with 1 μM hRpn13 Pru and fluorescence emission at 350 nm measured. […] The compounds were separately added at 10-fold molar excess to 20 μM ^15N-labeled hRpn13 Pru and binding assessed at 25° C. by 2D NMR for samples dissolved in NMR buffer (20 mM sodium phosphate, 50 mM NaCl, 2 mM DTT, 10% DMSO-d6 (deuterated DMSO), pH 6.5). […] XL5 addition caused hRpn13 signals to shift from free state positions to an observable bound state whereas spectral changes were not induced by the other compounds tested. […]
DSF experiments were performed on a PrometheusNT.48 instrument (NanoTemper Technologies, Germany) at 20° C. […] Each sample was loaded into three high sensitivity capillaries (NanoTemper, cat #PR-C006) and the emission of intrinsic tryptophan fluorescence at 350 nm was monitored.

RPMI 8226 cells = experiment: MTT cell metabolism / cell viability assay in RPMI 8226; type: cell-based; settings: RPMI 8226, 48 hours, up to 40 μM
Method: Since previous hRpn13-targeting molecules induce apoptosis in multiple myeloma and colon cancer cells we tested whether XL5 restricts the RPMI 8226 multiple myeloma and HCT116 colon cancer cell lines by measuring metabolism with an MTT (3-(4,5-dimethylthiazol-2-yl)-2,5-diphenyltetrazolium bromide) assay. Experiments were also conducted in parallel with a HCT116 colon cancer cell line in which the exon encoding hRpn13 C88 is deleted, named trRpn13; this cell line expresses a truncated hRpn13 protein with a defective Pru and inability to bind the proteasome28. RPMI 8226 and WT (wild-type) or trRpn13 HCT116 cells seeded at 8,000 and 4,000 cells per well were treated with varying concentrations of XL5 extending to 40 μM and compared to cells incubated with equivalent amounts of DMSO vehicle control.
HCT116 WT or trRpn13 cells were seeded at 4,000 cells/well whereas RPMI 8226 cells were seeded at 8,000 cells/well with RPMI 1640 medium (no phenol red, Thermo Fisher Scientific 11835030) containing 2% fetal bovine serum in 96-well plates. Cells were treated with 0.4% DMSO (as a control) and this concentration was maintained with XL5, XL5-PROTACs XL5-VHL, XL5-VHL-2, XL5-CRBN, or XL5-IAP, and E3 ligands VHL-Ac, thalidomide (Selleckchem, catalog NO. S1193), or IAP-Bz at 10 μM, 20 μM, 30 μM or 40 μM concentration. After 48 hours, 0.35 mg/mL MTT was added for 4 hours of incubation. Stop solution (40% DMF, 10% SDS (W/V), 25 mM HCl, 2.5% acetic acid in H2O) was added to the cells and incubated overnight. Absorbance at 570 nm was measured by using CLARIOstar (BMG LABTECH).

[3] = Reactivity in mouse serum by LC-MS; type: in vitro ADME; settings: 0.2 μM, room temperature, 24-hour time period
Method: To test for covalent interaction, an hRpn13 Pru sample was incubated with 10-fold molar excess XL5 or DMSO (as a vehicle control) and subjected to liquid chromatography-mass spectrometry (LC-MS). […] To test for general reactivity of XL5 towards exposed cysteines, 40 μM XL5 was incubated at 4° C. for two hours with 2 mM reduced L-glutathione serving as representative of a non-specific interactor with exposed cysteines. XL5-ligated glutathione was detected at only 2% abundance (FIG. 2B). Under identical conditions, 40 μM RA190 reacted with 2 mM reduced L-glutathione to yield products with one or two molecules ligated at 14% or 30% abundance, respectively. We also tested XL5 reactivity by incubating it at 0.2 μM with mouse serum (BioIVT) and monitoring the effect by LC-MS over a 24-hour time period to find only 6% reduction in the unligated compound.
To check for reactivity of XL5 in mouse serum, 0.2 μM XL5 was mixed with mouse serum (BioIVT) and aliquots of the spiked mixture left at room temperature for 0, 4, 8 and 24 hours. For each time point, six samples were extracted using 75% acetonitrile and 0.075% formic acid. The supernatant was transferred to polypropylene injection vials for LC-MS analysis. […]

hRpn13 Pru [4] = biological target: T1, hRpn13 Pru; experiment: 2D NMR (1H,15N HSQC) binding to 15N-labeled hRpn13 Pru; settings: assessed by ITC and NMR
Source text: We conducted in silico docking screens of commercial libraries containing in total 63 million compounds by using the hRpn13 Pru:hRpn2 structure and hRpn2-binding site of hRpn13 as a binding pocket. Twenty-two potential lead compounds were selected for validation by biophysical assays. hRpn13 W108 is partially exposed when free but buried by hRpn2, enabling tryptophan quenching by differential scanning fluorimetry (DSF at λ350) for assaying binding and this approach was used to screen for compound binding to this site. 20 μM compound (separately for twenty compounds) was incubated with 1 μM hRpn13 Pru and fluorescence emission at 350 nm measured. […] The compounds were separately added at 10-fold molar excess to 20 μM ^15N-labeled hRpn13 Pru and binding assessed at 25° C. by 2D NMR for samples dissolved in NMR buffer (20 mM sodium phosphate, 50 mM NaCl, 2 mM DTT, 10% DMSO-d6 (deuterated DMSO), pH 6.5). […]
For screening by ^1H, ^15N HSQC experiments, small molecule dissolved in DMSO-d6 was added to 20 μM or 250 μM ^15N-labeled hRpn13 Pru at a molar excess of 2-fold (for XL5) or 10-fold (for all compounds tested) in NMR buffer (20 mM sodium phosphate, 50 mM NaCl, 2 mM DTT, 10% DMSO-d6, pH 6.5). […] Three ^13C-half-filtered NOESY experiments were recorded with a 100 ms mixing time on asymmetrically labeled samples dissolved in NMR buffer. […]

hRpn13 / hRpn13-Pru = experiment: Immunoblot of hRpn13 species in RPMI 8226 cell lysates; type: cell-based, human; settings: RPMI 8226 WT, 100 nM, 24 hours
Method: HCT116 WT, HCT116 trRpn13, RPMI 8226 or 293T cells were collected and washed with PBS followed by lysing in 1% Triton-TBS lysis buffer (50 mM Tris-HCl, pH 7.5, 150 mM NaCl, 1 mM PMSF) supplemented with protease inhibitor cocktail (Roche). Total protein concentration was determined by bicinchoninic acid (Pierce). Protein lysates were prepared in 1χ LDS (ThermoFisher, NP0007) buffer with 100 mM DTT and heating at 70° C. for 10 min, loaded onto 4-12% Bis-Tris polyacrylamide gels (Life Technologies), subjected to SDS-PAGE and transferred to Invitrolon polyvinylidene difluoride membranes (Life Technologies). The membranes were blocked in Tris-buffered saline with 0.1% Tween-20 (TBST) supplemented with 5% skim milk, incubated with primary antibody, washed in TBST, incubated with secondary antibody and washed extensively in TBST. Pierce™ ECL Western Blotting Substrate (32106; Thermo Fisher Scientific) or Amersham™ ECL™ Primer Western Blotting Detection Reagent (cytiva) was used for antibody signal detection.
To test whether the XL5-PROTACs cause ubiquitination and degradation of hRpn13, lysates from RPMI 8226 (FIG. 5C) cells treated with 40 μM XL5 orXL5-PROTAC compared to DMSO vehicle control were immunoprobed for hRpn13 and β-actin (loading control).

T1 sequence (Q16186 1-150): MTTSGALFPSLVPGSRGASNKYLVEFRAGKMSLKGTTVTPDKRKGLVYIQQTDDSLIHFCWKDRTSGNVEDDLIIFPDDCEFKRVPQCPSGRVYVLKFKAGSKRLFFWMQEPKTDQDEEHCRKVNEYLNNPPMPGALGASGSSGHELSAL

Cl.N[C@@H](Cc1ccccc1)C(=O)N1C/C(=C/c2ccc(Cl)c(Cl)c2)C(=O)/C(=C\c2ccc(Cl)c(Cl)c2)C1 [RA190, reference compound]
binding detected by ITC (hRpn13 Pru [1]): did not detect binding
tryptophan fluorescence emission quenching at 350 nm (hRpn13 Pru [2]): titration-dependent reduction in λ350 signal

CC(=O)N[C@H](C(=O)N1C[C@H](O)C[C@H]1C(=O)N[C@@H](C)c1ccc(-c2scnc2C)cc1)C(C)(C)C [VHL-Ac, reference compound]
metabolic activity / cell viability (MTT) (RPMI 8226 cells): did not affect metabolic activity

Cc1ccc(C(=O)Nc2cccc(/C=C(\C#N)C(=O)Nc3ccccc3C(=O)O)c2)cc1 [XL5]
reduction in the unligated compound in mouse serum [3]: 6%

CNc1ccc(C(=O)Nc2cccc(/C=C(\C#N)C(=O)Nc3ccccc3C(=O)O)c2)cc1 [XL24]
Kd (hRpn13 Pru [1]; 200 μM hRpn13 Pru into 20 μM compound, buffer C): 1.74 ± 0.35 µM
change of affinity for hRpn13 Pru relative to XL5 (hRpn13 Pru [4]): little effect

CC(C)C[C@H](NC(=O)[C@H](CCc1ccccc1)NC(=O)CN1CCOCC1)C(=O)N[C@@H](Cc1ccccc1)C(=O)N[C@@H](CC(C)C)C(=O)[C@@]1(C)CO1 [carfilzomib, reference compound]
hRpn13-Pru level after proteasome inhibitor (hRpn13 / hRpn13-Pru): reduced levels of hRpn13-Pru

O=C1CCC(N2C(=O)c3ccccc3C2=O)C(=O)N1 (centres unmarked) [thalidomide, reference compound]
metabolic activity / cell viability (MTT) (RPMI 8226 cells): did not affect metabolic activity
